# Assay results reported in paper PMC8037182, “Solvothermal Synthesis of Multiple Dihydropyrimidinones at a Time as Inhibitors of Eg5” (Molecules, 2021).
# How the values were obtained:
# Caco-2 cell line = test: Cytotoxicity MTS assay, Caco-2 cell line; assay type: cell-based; conditions: for OD490 Mean / OD490 Well 1 / OD490 Well 2 / OD490 Well 3: Caco-2 cell line
# Experimental: (§1) The positive compounds (IC50 < 100 μM) obtained from the primary Eg5 motor protein ATPase assay were tested for antiproliferative activity in vitro against Caco-2 cell line, Hela cell line, L929 cell line and T24 cell line by performing MTS assay. Cells were introduced into 96-well plates at a density of 1000 cells per well. After 24 h incubation, the cells were exposed with compounds at final concentrations ranging from 0.5 to 100 µM for 24 h. DMSO was used at a final concentration of 0.025% as blank control, monastrol was used as the positive control. Then 20 µL (CellTiter 96® AQueous One Solution Promega, Madison, WI, USA) reagent was added in each well. After 2 h at 37 °C in a 80% humidified, 5% CO2 atmosphere, the absorbance at 490 nm was recorded using a microplate reader (BIO-RAD iMark^TM). The results were obtained in three independent duplicate experiments. The primary data were shown in Supplementary Materials Tables S4–S7. The IC50 values for these compounds were calculated from a non-linear regression graph plotted between the percentage of cell viability and concentration with SPSS17.0 software.
# T24 cell line = test: Cytotoxicity MTS assay, T24 cell line; assay type: cell-based; conditions: for OD490 Mean / OD490 Well 1 / OD490 Well 2 / OD490 Well 3: T24 cell line
# Experimental: as §1
smiles,measurement,setting,value
CCOC(=O)c1c(C2NC(=O)NC(C)=C2C(=O)Nc2ccccc2C)[nH]c(C(=O)OC)c1C (centres unmarked) [D2],OD490 Mean,"Caco-2 cell line; 0.5μM, first assay",0.6270
same,OD490 Well 1,"Caco-2 cell line; 0.5μM, first assay",0.5887
same,OD490 Well 2,"Caco-2 cell line; 0.5μM, first assay",0.6362
same,OD490 Well 3,"Caco-2 cell line; 0.5μM, first assay",0.6562
same,OD490 Mean,"Caco-2 cell line; 0.5μM, second assay",0.7070
same,OD490 Well 1,"Caco-2 cell line; 0.5μM, second assay",0.7084
same,OD490 Well 2,"Caco-2 cell line; 0.5μM, second assay",0.7002
same,OD490 Well 3,"Caco-2 cell line; 0.5μM, second assay",0.7123
same,OD490 Mean,"Caco-2 cell line; 0.5μM, third assay",0.6851
same,OD490 Well 1,"Caco-2 cell line; 0.5μM, third assay",0.4885
same,OD490 Well 2,"Caco-2 cell line; 0.5μM, third assay",0.8254
same,OD490 Well 3,"Caco-2 cell line; 0.5μM, third assay",0.7414
same,OD490 Mean,"Caco-2 cell line; 1μM, first assay",0.6349
same,OD490 Well 1,"Caco-2 cell line; 1μM, first assay",0.5288
same,OD490 Well 2,"Caco-2 cell line; 1μM, first assay",0.6946
same,OD490 Well 3,"Caco-2 cell line; 1μM, first assay",0.6813
same,OD490 Mean,"Caco-2 cell line; 1μM, second assay",0.7459
same,OD490 Well 1,"Caco-2 cell line; 1μM, second assay",0.7813
same,OD490 Well 2,"Caco-2 cell line; 1μM, second assay",0.6848
same,OD490 Well 3,"Caco-2 cell line; 1μM, second assay",0.7716
same,OD490 Mean,"Caco-2 cell line; 1μM, third assay",0.6746
same,OD490 Well 1,"Caco-2 cell line; 1μM, third assay",0.6245
same,OD490 Well 2,"Caco-2 cell line; 1μM, third assay",0.7010
same,OD490 Well 3,"Caco-2 cell line; 1μM, third assay",0.6982
same,OD490 Mean,"Caco-2 cell line; 10μM, first assay",0.6116
same,OD490 Well 1,"Caco-2 cell line; 10μM, first assay",0.5314
same,OD490 Well 2,"Caco-2 cell line; 10μM, first assay",0.6140
same,OD490 Well 3,"Caco-2 cell line; 10μM, first assay",0.6893
same,OD490 Mean,"Caco-2 cell line; 10μM, second assay",0.7407
same,OD490 Well 1,"Caco-2 cell line; 10μM, second assay",0.7116
same,OD490 Well 2,"Caco-2 cell line; 10μM, second assay",0.7395
same,OD490 Well 3,"Caco-2 cell line; 10μM, second assay",0.771
same,OD490 Mean,"Caco-2 cell line; 10μM, third assay",0.6639
same,OD490 Well 1,"Caco-2 cell line; 10μM, third assay",0.7421
same,OD490 Well 2,"Caco-2 cell line; 10μM, third assay",0.5621
same,OD490 Well 3,"Caco-2 cell line; 10μM, third assay",0.6874
same,OD490 Mean,"Caco-2 cell line; 25μM, first assay",0.6114
same,OD490 Well 1,"Caco-2 cell line; 25μM, first assay",0.5587
same,OD490 Well 2,"Caco-2 cell line; 25μM, first assay",0.6570
same,OD490 Well 3,"Caco-2 cell line; 25μM, first assay",0.6185
same,OD490 Mean,"Caco-2 cell line; 25μM, second assay",0.6775
same,OD490 Well 1,"Caco-2 cell line; 25μM, second assay",0.5825
same,OD490 Well 2,"Caco-2 cell line; 25μM, second assay",0.7137
same,OD490 Well 3,"Caco-2 cell line; 25μM, second assay",0.7364
same,OD490 Mean,"Caco-2 cell line; 25μM, third assay",0.6183
same,OD490 Well 1,"Caco-2 cell line; 25μM, third assay",0.6214
same,OD490 Well 2,"Caco-2 cell line; 25μM, third assay",0.6325
same,OD490 Well 3,"Caco-2 cell line; 25μM, third assay",0.6010
same,OD490 Mean,"Caco-2 cell line; 50μM, first assay",0.5907
same,OD490 Well 1,"Caco-2 cell line; 50μM, first assay",0.6013
same,OD490 Well 2,"Caco-2 cell line; 50μM, first assay",0.6084
same,OD490 Well 3,"Caco-2 cell line; 50μM, first assay",0.5625
same,OD490 Mean,"Caco-2 cell line; 50μM, second assay",0.5350
same,OD490 Well 1,"Caco-2 cell line; 50μM, second assay",0.5688
same,OD490 Well 2,"Caco-2 cell line; 50μM, second assay",0.5038
same,OD490 Well 3,"Caco-2 cell line; 50μM, second assay",0.5324
same,OD490 Mean,"Caco-2 cell line; 50μM, third assay",0.5761
same,OD490 Well 1,"Caco-2 cell line; 50μM, third assay",0.6025
same,OD490 Well 2,"Caco-2 cell line; 50μM, third assay",0.5936
same,OD490 Well 3,"Caco-2 cell line; 50μM, third assay",0.5321
same,OD490 Mean,"Caco-2 cell line; 100μM, first assay",0.4815
same,OD490 Well 1,"Caco-2 cell line; 100μM, first assay",0.4762
same,OD490 Well 2,"Caco-2 cell line; 100μM, first assay",0.4852
same,OD490 Well 3,"Caco-2 cell line; 100μM, first assay",0.4831
same,OD490 Mean,"Caco-2 cell line; 100μM, second assay",0.5288
same,OD490 Well 1,"Caco-2 cell line; 100μM, second assay",0.5278
same,OD490 Well 2,"Caco-2 cell line; 100μM, second assay",0.5253
same,OD490 Well 3,"Caco-2 cell line; 100μM, second assay",0.5332
same,OD490 Mean,"Caco-2 cell line; 100μM, third assay",0.5185
same,OD490 Well 1,"Caco-2 cell line; 100μM, third assay",0.5637
same,OD490 Well 2,"Caco-2 cell line; 100μM, third assay",0.4985
same,OD490 Well 3,"Caco-2 cell line; 100μM, third assay",0.4932
same,IC50,"Caco-2 cell line; MTS assay, 24 h exposure",116 µM
same,IC50,"T24 cell line; MTS assay, 24 h exposure",> 150 µM
same,OD490 Mean,"T24 cell line; 0.5μM, first assay",1.8524
same,OD490 Well 1,"T24 cell line; 0.5μM, first assay",1.8720
same,OD490 Well 2,"T24 cell line; 0.5μM, first assay",1.7367
same,OD490 Well 3,"T24 cell line; 0.5μM, first assay",1.9486
same,OD490 Mean,"T24 cell line; 0.5μM, second assay",1.7337
same,OD490 Well 1,"T24 cell line; 0.5μM, second assay",1.7425
same,OD490 Well 2,"T24 cell line; 0.5μM, second assay",1.7320
same,OD490 Well 3,"T24 cell line; 0.5μM, second assay",1.7265
same,OD490 Mean,"T24 cell line; 1μM, first assay",1.8992
same,OD490 Well 1,"T24 cell line; 1μM, first assay",1.8529
same,OD490 Well 2,"T24 cell line; 1μM, first assay",2.1141
same,OD490 Well 3,"T24 cell line; 1μM, first assay",1.7306
same,OD490 Mean,"T24 cell line; 1μM, second assay",1.7313
same,OD490 Well 1,"T24 cell line; 1μM, second assay",1.6985
same,OD490 Well 2,"T24 cell line; 1μM, second assay",1.7321
same,OD490 Well 3,"T24 cell line; 1μM, second assay",1.7632
same,OD490 Mean,"T24 cell line; 10μM, first assay",1.7422
same,OD490 Well 1,"T24 cell line; 10μM, first assay",1.5585
same,OD490 Well 2,"T24 cell line; 10μM, first assay",1.7096
same,OD490 Well 3,"T24 cell line; 10μM, first assay",1.9584
same,OD490 Mean,"T24 cell line; 10μM, second assay",1.7005
same,OD490 Well 1,"T24 cell line; 10μM, second assay",1.6985
same,OD490 Well 2,"T24 cell line; 10μM, second assay",1.7032
same,OD490 Well 3,"T24 cell line; 10μM, second assay",1.6999
same,OD490 Mean,"T24 cell line; 25μM, first assay",1.5770
same,OD490 Well 1,"T24 cell line; 25μM, first assay",1.7779
same,OD490 Well 2,"T24 cell line; 25μM, first assay",1.7471
same,OD490 Well 3,"T24 cell line; 25μM, first assay",1.2060
same,OD490 Mean,"T24 cell line; 25μM, second assay",1.7524
same,OD490 Well 1,"T24 cell line; 25μM, second assay",1.7747
same,OD490 Well 2,"T24 cell line; 25μM, second assay",1.7842
same,OD490 Well 3,"T24 cell line; 25μM, second assay",1.6982
same,OD490 Mean,"T24 cell line; 50μM, first assay",1.5326
same,OD490 Well 1,"T24 cell line; 50μM, first assay",1.7713
same,OD490 Well 2,"T24 cell line; 50μM, first assay",1.4256
same,OD490 Well 3,"T24 cell line; 50μM, first assay",1.4009
same,OD490 Mean,"T24 cell line; 50μM, second assay",1.6946
same,OD490 Well 1,"T24 cell line; 50μM, second assay",1.6524
same,OD490 Well 2,"T24 cell line; 50μM, second assay",1.6895
same,OD490 Well 3,"T24 cell line; 50μM, second assay",1.7420
same,OD490 Mean,"T24 cell line; 100μM, first assay",1.5388
same,OD490 Well 1,"T24 cell line; 100μM, first assay",1.4456
same,OD490 Well 2,"T24 cell line; 100μM, first assay",1.6062
same,OD490 Well 3,"T24 cell line; 100μM, first assay",1.5646
same,OD490 Mean,"T24 cell line; 100μM, second assay",1.4712
same,OD490 Well 1,"T24 cell line; 100μM, second assay",1.4274
same,OD490 Well 2,"T24 cell line; 100μM, second assay",1.5020
same,OD490 Well 3,"T24 cell line; 100μM, second assay",1.4842
